Assay results taken from publication PMC10296591, “Potent GST Ketosteroid Isomerase Activity Relevant to Ecdysteroidogenesis in the Malaria Vector Anopheles gambiae” (Biomolecules, 2023).

How the values were obtained:
Format in all cases: biochemical
Nobo [1] = molecular target: T1, Nobo (Anopheles gambiae, UniProt Q8WQJ5); test: spectrophotometric specific activity of purified enzyme
T1 construct: gene GSTe8
T1 sequence (Q8WQJ5 1-217): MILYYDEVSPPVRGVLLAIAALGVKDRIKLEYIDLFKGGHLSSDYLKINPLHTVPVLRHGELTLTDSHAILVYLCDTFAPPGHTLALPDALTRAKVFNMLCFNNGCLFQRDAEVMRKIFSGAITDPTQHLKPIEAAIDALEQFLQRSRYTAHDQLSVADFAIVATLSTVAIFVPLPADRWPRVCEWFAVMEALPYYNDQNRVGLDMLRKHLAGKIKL

Nobo D111N = molecular target: T2, Nobo D111N (Anopheles gambiae, UniProt Q8WQJ5, D111N); test: spectrophotometric inhibition assay of purified mutant enzyme with DCNB and glutathione
T2 construct: gene GSTe8; N-terminal hexahistidine tag

Nobo [2] = molecular target: T1, Nobo; test: spectrophotometric inhibition assay of purified enzyme with DCNB and glutathione
Nobo [3] = molecular target: T1, Nobo; test: steady-state kinetics of double-bond isomerization by purified enzyme (kcat/Km)

Compound: O=[N+]([O-])c1ccc(Cl)c(Cl)c1 [DCNB, 1,2-dichloro-4-nitrobenzene]
- specific activity (Nobo [1]): 16.4 ± 1.9 μmol/min per mg

Compound: C[C@]12CC[C@@H]3c4ccc(O)cc4CC[C@H]3[C@@H]1CC[C@@H]2O [17β-estradiol]
- IC50 (Nobo D111N): 15.5 ± 6 µM
- IC50 (Nobo [2]): 0.17 ± 0.03 µM

Compound: C=CCN=C=S [AITC, allyl isothiocyanate]
- specific activity (Nobo [1]): 3.3 ± 0.4 μmol/min per mg

Compound: CC(C)(OO)c1ccccc1 [CuOOH, cumene hydroperoxide]
- specific activity (Nobo [1]): 5.0 ± 0.5 μmol/min per mg

Compound: C[C@]12CCC(=O)CC1=CC[C@@H]1[C@@H]2CC[C@]2(C)C(=O)CC[C@@H]12 [5-AD, 5-androsten-3,17-dione]
- steady-state kinetics of double-bond isomerization by purified enzyme (kcat/Km) (Nobo [3]): (6.9 ± 0.3) × 10^6 M^−1s^−1

Compound: S=C=NCCc1ccccc1 [PEITC, phenethyl isothiocyanate]
- specific activity (Nobo [1]): 0.4 ± 0.1 μmol/min per mg

Compound: O=[N+]([O-])c1ccc(Cl)c([N+](=O)[O-])c1 [CDNB, 1-chloro-2,4-dinitribenzene]
- specific activity (Nobo [1]): 24.7 ± 3.4 μmol/min per mg
